Two compounds from patent US20100105644A1, “BOTANICAL COMPOSITION FOR ENHANCED SKIN REPAIR AND USES THEREOF” (The Regents of the University of Michigan, priority 2008, published 2010) can be followed below.

The structures appear in SMILES notation.

Data set [1] in a line: In vitro activities of purified 6-gingerol compared with the crude ginger extract. The note with it: 6-gingerol purified to greater than 95%. The source says: The ginger root is also a source of multiple biologically active gingerol compounds, including 6-gingerol, 8-gingerol, 10-gingerol, 6-paradol, 6-shagoal and cassumunin. 6-gingerol is the most abundant analogue in the extract used here, and represents approximately 32% of the total extract. […] In addition, synthetic curcuminoids and synthetic gingerols are also available. One goal is to have a preparation that is inexpensive to prepare so that individuals at risk for non-healing skin ulcers can utilize it on a long-term basis as a wound preventative.

Data set [2] deals with type I collagen. As to the kind of experiment: Soluble type I collagen (Western blot) in organ culture fluid of healed wound skin, Temovate rat model. In kind it is in vivo. As for the experimental part:
(§1) Wounding was performed under sterile conditions in a laminar flow hood. Wound size was determined daily by measuring the X-axis and Y-axis of the scabbed wound and calculating the area of the remaining scab. At the time of wound closure, animals were sacrificed and duplicate 6 mm skin punches were collected from wounded and healed skin. One biopsy was fixed in 10% buffered formalin and used for histological analysis. The other biopsy was put in organ culture for 3 days. […]
Analysis of Type I Collagen: Organ culture fluids were assayed for type I collagen by Western blot analysis. Briefly, organ culture fluids representing an equal quantity of protein were resolved using 8% SDS-PAGE under non-reducing conditions and transferred to nitrocellulose membranes. […] The membranes were then washed with TTBS and bound antibody was detected using the Phototope-HRP western detection kit (Cell Signaling Technologies, Inc., Danvers, Mass.). Images were scanned, digitized, and quantified using NIH image analysis software.
At the time of wound closure, skin from the center of the initial wound (most recently healed skin) was obtained and incubated in organ culture for three days. Organ culture fluids were collected at the end of the incubation period and analyzed for type I collagen and MMP-2/MMP-9. […]
On the technique in general: A western blot detects proteins with antibodies after separation by electrophoresis.

The test system of data set [3] is MMP-9. As to the kind of experiment: MMP-9 (gelatin zymography) in organ culture fluid of healed wound skin, Temovate rat model. In kind it is in vivo. The conditions noted are these: botanical treatment of Temovate-treated rats. The method, then:
as §1, with “days. Briefly, the skin was cut into pieces of approximately 2 mm on a side, and four-five such pieces were incubated for 3 days in 0.5 mL of a culture medium consisting of growth factor-free, serum-free, Keratinocyte Basal Medium (KBM) (Lonza, Walkersville, Md.). Before use, the culture medium was supplemented with Ca^2+ to a final concentration of 1.4 mM.” for “days.”
(§2) Analysis of Metalloproteinases: MMP-2 and MMP-9: Gelatin-embedded enzymography (zymography) was used to assess levels of latent and active MMP-2 and MMP-9 in organ culture fluids. […] After electrophoresis under non-reducing conditions to separate proteins and overnight incubation to allow for substrate digestion, zones of hydrolysis were identified as “holes” in the stained gels and quantified. Values for latent and active MMPs-2 and -9 bands were obtained following digitization and quantification. […]

Data set [4] relates to MMP-2. Kind of data set: MMP-2 (gelatin zymography) in organ culture fluid of skin from topically treated healthy hairless rats. In kind it is in vivo, rat. The note with it: 10% curcumin / 3% ginger extract topical, skin in organ culture 3 days, compared to control skin. The method, then:
(§3) Wounding was performed under sterile conditions in a laminar flow hood. Wound size was determined daily by measuring the X-axis and Y-axis of the scabbed wound and calculating the area of the remaining scab. At the time of wound closure, animals were sacrificed and duplicate 6 mm skin punches were collected from wounded and healed skin. One biopsy was fixed in 10% buffered formalin and used for histological analysis. The other biopsy was put in organ culture for 3 days. Briefly, the skin was cut into pieces of approximately 2 mm on a side, and four-five such pieces were incubated for 3 days in 0.5 mL of a culture medium consisting of growth factor-free, serum-free, Keratinocyte Basal Medium (KBM) (Lonza, Walkersville, Md.). Before use, the culture medium was supplemented with Ca^2+ to a final concentration of 1.4 mM. At the end of the 3-day incubation period, the organ culture fluid was collected and assayed for soluble type I collagen by western blotting and MMP-2 and -9 gelatin zymography (see below).
(§4) Analysis of Metalloproteinases: MMP-2 and MMP-9: Gelatin-embedded enzymography (zymography) was used to assess levels of latent and active MMP-2 and MMP-9 in organ culture fluids. SDS-PAGE gels were prepared with the incorporation of gelatin (1 mg/mL) at the time of casting.

Data set [5] deals with MMP-1. As to the kind of experiment: MMP-1 levels in human skin organ culture fluid. In kind it is cell-based. The note with it: increasing amounts of curcumin added to 1 μg per mL ginger extract.
Procedure: Human skin was incubated in organ culture under control conditions (Ca^2+-supplemented KBM culture medium) or in the same culture medium with 1 μg per mL ginger extract. Increasing amounts of curcumin were added. […] Human skin was incubated in organ culture under control conditions (Ca^2+-supplemented KBM culture medium) or in the same culture medium with 1 μg per mL ginger extract. Increasing amounts of curcumin were added.
Data set [6] deals with MMP-9. Kind of data set: MMP-9 (gelatin zymography) in organ culture fluid of skin from topically treated healthy hairless rats. In kind it is in vivo, rat. The conditions noted are these: 10% curcumin / 3% ginger extract topical, skin in organ culture 3 days, compared to control skin. The method, then: as §3, §4
Data set [7] relates to abrasion wounds in skin of corticosteroid-treated hairless rats. As to the kind of experiment: Abrasion wound healing in corticosteroid-treated hairless rats. The conditions noted are these: 21 days pretreatment, then 15 days with Temovate; 10% curcumin, 3% ginger extract; compared to Temovate plus vehicle alone. In kind it is in vivo, rat. As for the experimental part:
Rat Model: Hairless rats were treated for 21 days topically over the back and flank with 500 μL of solutions containing 10% curcumin, 3% ginger extract or the combination of the two. Vehicle alone served as control. During the treatment phase, animals were examined daily for changes in the gross appearance of the skin. After the initial 21-day pretreatment period, rats were treated with Temovate® (clobetasol propionate) cream along with the botanicals for an additional 15 day period. Temovate® (0.05% solution of clobetasol propionate in cream base) was obtained from Glaxo Smith Kline (Philadelphia, Pa.). Temovate® was applied in the morning and botanicals were applied in the evening. At the end of the treatment period, abrasion wounding was performed. […] A pre-measured circular area, approximately 6 cm in diameter, was scrubbed with a stiff-nylon bristle brush lightly wetted with acetone and concomitantly abraded with a piece of course sanding sponge. […]
Wounding was performed under sterile conditions in a laminar flow hood. Wound size was determined daily by measuring the X-axis and Y-axis of the scabbed wound and calculating the area of the remaining scab. […]
Statistical Analysis: Data were analyzed using one-way analysis of variance (ANOVA) followed by the Bonferroni posttest for selected pairs (GraphPad Prism version 4.00 for Windows, GraphPad Software, San Diego, Calif.). […]

The subject of data set [8] is skin of healthy hairless rats. Kind of data set: Topical treatment of healthy hairless rats: gross appearance and irritation of the skin. In kind it is in vivo, rat. The note with it: topical once daily for 14 days, 10% curcumin and 3% ginger extract alone and in combination.
Procedure: The botanicals were dissolved in a vehicle (70% ethanol and 30% propylene glycol) at 10.0% for curcumin and 3% for the ginger extract. The concentrations chosen for the two botanicals were based on results from preliminary in vitro studies and in vivo studies with healthy hairless rats.
Based on in vitro experiments in which a wide range of concentrations of both curcumin and the ginger extract were tested, healthy hairless rats were treated topically once daily for 14 days with solutions containing 10% curcumin and 3% ginger extract, alone and in combination. Control rats were treated with vehicle alone. Animals were monitored closely during the treatment period of any visible changes in gross appearance of the skin. […] At the end of the treatment period, skin from the treated site of each animal was obtained. The skin was incubated in organ culture for 3 days.
The test system of data set [9] is type I collagen. Kind of data set: Soluble type I collagen (Western blot) in organ culture fluid of skin from topically treated healthy hairless rats. In kind it is in vivo, rat. The note with it: 10% curcumin / 3% ginger extract topical, skin in organ culture 3 days, compared to control skin. As for the experimental part: as §3
In data set [10] the test system is MMP-2. As to the kind of experiment: MMP-2 (gelatin zymography) in organ culture fluid of healed wound skin, Temovate rat model. In kind it is in vivo. The conditions noted are these: botanical treatment of Temovate-treated rats. As for the experimental part:
as §3, with “At the end of the 3-day incubation period, the organ culture fluid was collected and assayed for soluble type I collagen by western blotting and MMP-2 and -9 gelatin zymography (see below).” left out
as §2

For another data set, the system named is epidermal keratinocytes. Kind of data set: Epidermal keratinocyte proliferation. The source says:
There are several surprising and unexpected ways in which the combination of curcumin and 6-gingerol functions. First, these compounds promote collagen building in combination. On one hand, the ginger compound serves to raise the level of collagen-degrading enzymes, such as matrix metalloproteinases (MMPs), as one of its functions. On the other hand, the curcumin compound suppresses the MMP elevation stimulated by the ginger compound. Second, the combination promotes vascularization. During wound healing there is the need for new vascularization. However, new vessel growth needs to halt at some point and some vessels need to regress at a time when the wounded skin is fully healed. The ginger compound stimulates new vessel formation and the combination of curcumin and ginger extract result in a reduction in the number of capillaries in the skin at the end of the wound healing. This allows the skin to return to quiescence. Third, the combination promotes epidermal proliferation. Skin irritation is intimately associated with epidermal hyperplasia. The ginger compound stimulates epidermal keratinocyte proliferation while the curcumin compound suppresses ginger extract-induced keratinocyte growth. This may be the underlying factor responsible for the absence of irritation by the combination, for example, as compared to irritation observed with retinoid therapy. […]

Data set [11] has as its system MMP-1. As to the kind of experiment: MMP-1 levels in human dermal fibroblast culture fluid. In kind it is cell-based. The conditions noted are these: increasing amounts of curcumin added to 1 μg per mL ginger extract.
Procedure: Fibroblasts were incubated under control conditions (Ca^2+-supplemented KBM culture medium) or in the same culture medium supplemented with 1 μg per mL ginger extract. Increasing amounts of curcumin (X-axis) were added. […] Fibroblasts were incubated under control conditions (Ca^2+—supplemented KBM culture medium) or in the same culture medium supplemented with 1 μg per mL ginger extract. Increasing amounts of curcumin were added.

As to `CCCCCC(O)CC(=O)CCc1ccc(OC)c(O)c1` (stereo not shown) [6-gingerol, 5-hydroxy-1-(3-hydroxy-4-methoxyphenyl)decan-3-one], the “in vitro activities compared with the crude extract” value in [1] is listed as “same in vitro activities as the crude extract itself”.
For `COc1cc(/C=C/C(=O)CC(=O)/C=C/c2ccc(O)c(OC)c2)ccc1O` [curcumin, (1E,6E)-1,7-bis(4-hydroxy-3-methoxyphenyl)hepta-1,6-diene-3,5-dione], the “type I collagen in organ culture fluid” value with type I collagen [2] (botanicals prior to and during Temovate treatment, compared to rats treated with Temovate and vehicle) is “elevated”; in the data set on type I collagen [2] (treatment along with Temovate, compared to control culture fluids from rats not exposed to Temovate), “higher”. The “MMP-9 level in organ culture fluid” value with MMP-9 [3] was “reduced”. In addition, the “MMP-2 in organ culture fluid” value in the data set on MMP-2 [4] was “decrease”. For the same compound, in the data set on MMP-1 [5], the “ginger extract-induced MMP-1 expression in human skin organ culture fluid” value is “inhibited”. Besides, the “MMP-9 in organ culture fluid” value with MMP-9 [6] is on record as “decreased”. In addition, the “wound closure (percent of wound healed)” value in [7] was “improved”. For the same compound, the skin irritation result in [8] is given as “No irritation”. In the data set on type I collagen [9], the “soluble type I collagen in organ culture fluid” value is reported as “increased”. Also, in the data set with MMP-2 [10], the “MMP-2 level in organ culture fluid” value is “reduced”. In addition, the “ginger extract-induced keratinocyte growth” value in the data set with epidermal keratinocytes was “suppresses”. In addition, in the data set with MMP-1 [11], the “ginger extract-induced MMP-1 expression in fibroblast culture fluid” value is “inhibited”.
